Measured values reported in US11370798B2 (Vertex Pharmaceuticals Incorporated, priority 2012, dated 2022).

System: HCT116 colorectal cancer cells
Test: Cisplatin sensitization assay (96 h cell viability MTS);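 also: Test-compound concentration that lowers the Cisplatin IC50 by a set fold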
Assay type: cell-based
Conditions: compound and Cisplatin added simultaneously, Cisplatin sensitization value
In short: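 Compound and cisplatin added together as a full matrix of 2-fold serial dilutions from a top final concentration of 10 μM; cells incubated 96 h at 37° C, 5% CO2. Viability then read by MTS after 1 h further incubation; sensitization value reported in μM bins.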

| Compound | Cisplatin Sensitization Assay |
| --- | --- |
| Nc1nn2cc(Cl)cnc2c1C(=O)Nc1cnccc1N1CCN2CCC[C@H]2C1 [I-N-71, (S)-2-amino-6-chloro-N-(4-(hexahydropyrrolo[1,2-a]pyrazin-2(1H)-yl)pyridin-3-yl)pyrazolo[1,5-a]pyrimidine-3-carboxamide] | +++ (Cisplatin sensitization value of <0.02 μM) |
| CC1CN(C)CCN1c1ccncc1NC(=O)c1c(N)nn2cc(Cl)cnc12 (stereo not drawn) [I-N-72, 2-amino-6-chloro-N-(4-(2,4-dimethylpiperazin-1-yl)pyridin-3-yl)pyrazolo[1,5-a]pyrimidine-3-carboxamide] | +++ (Cisplatin sensitization value of <0.02 μM) |
| COC1CCN(c2ccncc2NC(=O)c2c(N)nn3cc(Cl)cnc23)CC1 [I-N-73, 2-amino-6-chloro-N-(4-(4-methoxypiperidin-1-yl)pyridin-3-yl)pyrazolo[1,5-a]pyrimidine-3-carboxamide] | +++ (Cisplatin sensitization value of <0.02 μM) |
| COC(=O)C1CCN(c2ccncc2NC(=O)c2c(N)nn3cc(Cl)cnc23)CC1 [I-N-74, methyl-1-(3-(2-amino-6-chloropyrazolo[1,5-a]pyrimidine-3-carboxamido)pyridin-4-yl)piperidine-4-carboxylate] | +++ (Cisplatin sensitization value of <0.02 μM) |
| Nc1nn2cc(Cl)cnc2c1C(=O)Nc1cnccc1N1CCn2cncc2C1 [I-N-75, 2-amino-6-chloro-N-(4-(5,6-dihydroimidazo[1,5-a]pyrazin-7(8H)-yl)pyridin-3-yl)pyrazolo[1,5-a]pyrimidine-3-carboxamide] | +++ (Cisplatin sensitization value of <0.02 μM) |
| CN1CCN(c2ccncc2NC(=O)c2c(N)nn3cc(C(C)(C)C#N)cnc23)CC1 [I-N-76, 2-amino-6-(2-cyanopropan-2-yl)-N-(4-(4-methylpiperazin-1-yl)pyridin-3-yl)pyrazolo[1,5-a]pyrimidine-3-carboxamide] | +++ (Cisplatin sensitization value of <0.02 μM) |
| N#CCc1cnc2c(C(=O)Nc3cnccc3N3CCCC3)c(N)nn2c1 [I-N-77, 2-amino-6-(cyanomethyl)-N-(4-(pyrrolidin-1-yl)pyridin-3-yl)pyrazolo[1,5-a]pyrimidine-3-carboxamide] | + (Cisplatin sensitization value>0.2 μM but <5 μM) |
| N#CCc1cnc2c(C(=O)Nc3cnccc3N3CCCCCC3)c(N)nn2c1 [I-N-79, 2-amino-N-(4-(azepan-1-yl)pyridin-3-yl)-6-(cyanomethyl)pyrazolo[1,5-a]pyrimidine-3-carboxamide] | ++ (Cisplatin sensitization value>0.02 μM but <0.2 μM) |
| CN1CCN(c2c(F)cncc2NC(=O)c2c(N)nn3cc(CC#N)cnc23)CC1 [I-N-80, 2-amino-6-(cyanomethyl)-N-(5-fluoro-4-(4-methylpiperazin-1-yl)pyridin-3-yl)pyrazolo[1,5-a]pyrimidine-3-carboxamide] | ++ (Cisplatin sensitization value>0.02 μM but <0.2 μM) |
| N#CCc1cnc2c(C(=O)Nc3cnccc3N3CCOCC3)c(N)nn2c1 [I-N-81, 2-amino-6-(cyanomethyl)-N-(4-morpholinopyridin-3-yl)pyrazolo[1,5-a]pyrimidine-3-carboxamide] | +++ (Cisplatin sensitization value of <0.02 μM) |
| CN1CCN(c2ccncc2NC(=O)c2c(N)nn3cc(CC#N)cnc23)CC1 [I-N-82, 2-amino-6-(cyanomethyl)-N-(4-(4-methylpiperazin-1-yl)pyridin-3-yl)pyrazolo[1,5-a]pyrimidine-3-carboxamide] | ++ (Cisplatin sensitization value>0.02 μM but <0.2 μM) |
| N#CCc1cnc2c(C(=O)Nc3cnccc3N3CCC(O)CC3)c(N)nn2c1 [I-N-83, 2-amino-6-(cyanomethyl)-N-(4-(4-hydroxypiperidin-1-yl)pyridin-3-yl)pyrazolo[1,5-a]pyrimidine-3-carboxamide] | ++ (Cisplatin sensitization value>0.02 μM but <0.2 μM) |
| N#CCc1cnc2c(C(=O)Nc3cnccc3N3CCCCC3)c(N)nn2c1 [I-N-84, 2-amino-6-(cyanomethyl)-N-(4-(piperidin-1-yl)pyridin-3-yl)pyrazolo[1,5-a]pyrimidine-3-carboxamide] | +++ (Cisplatin sensitization value of <0.02 μM) |
| CN1CCN(c2c(Cl)cncc2NC(=O)c2c(N)nn3cc(F)cnc23)CC1 [I-N-85, 2-amino-N-(5-chloro-4-(4-methylpiperazin-1-yl)pyridin-3-yl)-6-fluoropyrazolo[1,5-a]pyrimidine-3-carboxamide] | ++ (Cisplatin sensitization value>0.02 μM but <0.2 μM) |
| Nc1nn2cc(Cl)cnc2c1C(=O)Nc1cnccc1N1CCC(N)CC1 [I-N-86, 2-amino-N-(4-(4-aminopiperidin-1-yl)pyridin-3-yl)-6-chloropyrazolo[1,5-a]pyrimidine-3-carboxamide] | +++ (Cisplatin sensitization value of <0.02 μM) |
| CNC1CCN(c2ccncc2NC(=O)c2c(N)nn3cc(Cl)cnc23)CC1 [I-N-87, 2-amino-6-chloro-N-(4-(4-(methylamino)piperidin-1-yl)pyridin-3-yl)pyrazolo[1,5-a]pyrimidine-3-carboxamide] | ++ (Cisplatin sensitization value>0.02 μM but <0.2 μM) |
| Nc1nn2cc(Cl)cnc2c1C(=O)Nc1cnccc1N1CCNCC1 [I-N-88, 2-amino-6-chloro-N-(4-(piperazin-1-yl)pyridin-3-yl)pyrazolo[1,5-a]pyrimidine-3-carboxamide] | ++ (Cisplatin sensitization value>0.02 μM but <0.2 μM) |
| N#CCc1cnc2c(C(=O)Nc3cnccc3N3CCNCC3)c(N)nn2c1 [I-N-89, 2-amino-6-(cyanomethyl)-N-(4-(piperazin-1-yl)pyridin-3-yl)pyrazolo[1,5-a]pyrimidine-3-carboxamide] | ++ (Cisplatin sensitization value>0.02 μM but <0.2 μM) |
| N#CCc1cnc2c(C(=O)Nc3cnccc3N3CCOC(CN)C3)c(N)nn2c1 (stereo not drawn) [I-N-90, 2-amino-N-(4-(2-(aminomethyl)morpholino)pyridin-3-yl)-6-(cyanomethyl)pyrazolo[1,5-a]pyrimidine-3-carboxamide] | + (Cisplatin sensitization value>0.2 μM but <5 μM) |
| NCC1CCN(c2ccncc2NC(=O)c2c(N)nn3cc(Cl)cnc23)CC1 [I-N-91, 2-amino-N-(4-(4-(aminomethyl)piperidin-1-yl)pyridin-3-yl)-6-chloropyrazolo[1,5-a]pyrimidine-3-carboxamide] | ++ (Cisplatin sensitization value>0.02 μM but <0.2 μM) |
| Nc1nn2cc(F)cnc2c1C(=O)Nc1cncc(F)c1N1CCC(C(=O)O)CC1 [I-N-92, 1-(3-(2-amino-6-fluoropyrazolo[1,5-a]pyrimidine-3-carboxamido)-5-fluoropyridin-4-yl)piperidine-4-carboxylic acid] | + (Cisplatin sensitization value>0.2 μM but <5 μM) |
| CN(C)C1CN(C2CCN(c3ccncc3NC(=O)c3c(N)nn4cc(Cl)cnc34)CC2)C1 [I-N-94, 2-amino-6-chloro-N-(4-(4-(3-(dimethylamino)azetidin-1-yl)piperidin-1-yl)pyridin-3-yl)pyrazolo[1,5-a]pyrimidine-3-carboxamide] | +++ (Cisplatin sensitization value of <0.02 μM) |
| COC1CCN(C2CCN(c3ccncc3NC(=O)c3c(N)nn4cc(Cl)cnc34)CC2)C1 (stereo not drawn) [I-N-95, 2-amino-6-chloro-N-(4-(4-(3-methoxypyrrolidin-1-yl)piperidin-1-yl)pyridin-3-yl)pyrazolo[1,5-a]pyrimidine-3-carboxamide] | ++ (Cisplatin sensitization value>0.02 μM but <0.2 μM) |
| CN1CCN(C2CCN(c3ccncc3NC(=O)c3c(N)nn4cc(Cl)cnc34)CC2)CC1 [I-N-97, 2-amino-6-chloro-N-(4-(4-(4-methylpiperazin-1-yl)piperidin-1-yl)pyridin-3-yl)pyrazolo[1,5-a]pyrimidine-3-carboxamide] | +++ (Cisplatin sensitization value of <0.02 μM) |
| Nc1nn2cc(Cl)cnc2c1C(=O)Nc1cnccc1N1CCC(N2CC[C@@H](F)C2)CC1 [I-N-98, (R)-2-amino-6-chloro-N-(4-(4-(3-fluoropyrrolidin-1-yl)piperidin-1-yl)pyridin-3-yl)pyrazolo[1,5-a]pyrimidine-3-carboxamide] | +++ (Cisplatin sensitization value of <0.02 μM) |
| Nc1nn2cc(Cl)cnc2c1C(=O)Nc1cnccc1N1CCC(N2CCC3(COC3)C2)CC1 [I-N-99, N-(4-(4-(2-oxa-6-azaspiro[3.4]octan-6-yl)piperidin-1-yl)pyridin-3-yl)-2-amino-6-chloropyrazolo[1,5-a]pyrimidine-3-carboxamide] | +++ (Cisplatin sensitization value of <0.02 μM) |
| Nc1nn2cc(Cl)cnc2c1C(=O)Nc1cnccc1N1CCC(N2CC[S+]([O-])CC2)CC1 [I-N-100, 2-amino-6-chloro-N-(4-(4-(1-oxidothiomorpholino)piperidin-1-yl)pyridin-3-yl)pyrazolo[1,5-a]pyrimidine-3-carboxamide] | ++ (Cisplatin sensitization value>0.02 μM but <0.2 μM) |
| Nc1nn2cc(Cl)cnc2c1C(=O)Nc1cnccc1N1CCC(N2CCn3cncc3C2)CC1 [I-N-101, 2-amino-6-chloro-N-(4-(4-(5,6-dihydroimidazo[1,5-a]pyrazin-7(8H)-yl)piperidin-1-yl)pyridin-3-yl)pyrazolo[1,5-a]pyrimidine-3-carboxamide] | ++ (Cisplatin sensitization value>0.02 μM but <0.2 μM) |
| Nc1nn2cc(Cl)cnc2c1C(=O)Nc1cnccc1N1CCC(N2CCn3ccnc3C2)CC1 [I-N-102, 2-amino-6-chloro-N-(4-(4-(5,6-dihydroimidazo[1,2-a]pyrazin-7(8H)-yl)piperidin-1-yl)pyridin-3-yl)pyrazolo[1,5-a]pyrimidine-3-carboxamide] | ++ (Cisplatin sensitization value>0.02 μM but <0.2 μM) |
| Nc1nn2cc(Cl)cnc2c1C(=O)Nc1cnccc1N1CCC(N2CC[C@H](F)C2)CC1 [I-N-103, (S)-2-amino-6-chloro-N-(4-(4-(3-fluoropyrrolidin-1-yl)piperidin-1-yl)pyridin-3-yl)pyrazolo[1,5-a]pyrimidine-3-carboxamide] | +++ (Cisplatin sensitization value of <0.02 μM) |
